Columns and labels:
Assay type in all cases: in vivo
[1] = test system: broad leaf weeds (Lindernia pyxidaria and Monochoria vaginalis); assay: Test Example 1: herbicidal effect test by treatment of rice paddy soil (immediately after seeding); conditions: 120 g/10a active ingredient, dry weight vs untreated area, 14 days after treatment
Summary of the method: (§1)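 Flooded paddy pot test in a glass greenhouse: emulsion diluted in water, dropped at 120 g a.i. per 10 ares just after sowing, water depth kept about 3 cm. Dry-weight reduction relative to untreated plants is scored at 14 days.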

[2] = test system: Echinochloa crus-galli; assay: as above; conditions: 120 g/10a active ingredient, dry weight vs untreated area, 14 days after treatment
Summary of the method: as §1

[3] = test system: Scirpus juncoides; assay: as above; conditions: 120 g/10a active ingredient, dry weight vs untreated area, 14 days after treatment
Summary of the method: as §1

[4] = test system: broad leaf weeds (Lindernia pyxidaria and Monochoria vaginalis); assay: Test Example 2: herbicidal effect test by treatment during growing period in paddy rice cultivation (seven days after seeding); conditions: 120 g/10a active ingredient, assessed 14 days after treatment, dry weight vs untreated area
Summary of the method: (§2)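 Emulsion formulations, diluted in water, applied dropwise to flooded pots (about 3 cm water) 7 days post-seeding at 120 g a.i./10 ares. Weeds sown 30 seeds each, 0–1 cm deep in puddled paddy soil; greenhouse. Readout: % reduction in plant dry weight vs untreated, day 14, duplicates.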

[5] = test system: Echinochloa crus-galli; assay: as above; conditions: 120 g/10a active ingredient, assessed 14 days after treatment, dry weight vs untreated area
Summary of the method: as §2

[6] = test system: Scirpus juncoides; assay: as above; conditions: 120 g/10a active ingredient, assessed 14 days after treatment, dry weight vs untreated area
Summary of the method: as §2

[7] = test system: Echinochloa crus-galli; assay: Test Example 3: herbicidal effect test by treatment of dry field farming soil (one day after seeding); conditions: 120 g/10a active ingredient, evaluated 14 days after treatment
Method: (§3) This test was conducted in a double system per one agent solution concentration area, and the herbicidal rates (%) were determined by the following equation (Math. 1) on 14 days after the treatment with the agents. Herbicidal Rate (%)={1-(Average Dry Weight (g) of Plant of Treated Area)/(Average Dry Weight (g) of Plant of Untreated Area)}×100 [Math. 1]
(§4) Herbicidal Effect Test by Treatment of Dry Field Farming Soil
(§5) Pots with a size of 36 cm^2 were filled with a dry field farming soil (alluvium). The soil of the top layer of 1 cm and seeds of weeds, namely southern crabgrass, Echinochloa crus-galli, Chenopodium album and Amaranthus viridis, 20 seeds each, were evenly mixed, and the top layer was gently pressed. Emulsions prepared using the compounds in Table 5 below according to Formulation Example 5 were diluted with water one day after seeding, and the water-diluted agent solutions were sprayed to the soil surfaces at a ratio of 100 liters per 10 ares. The converted amount of the applied active ingredient corresponded to 120 g per 10 ares. The herbicidal effects were evaluated by the same standard as that in Test Example 1 on 14 days after the treatment with the agents. […] The compound numbers in Table 5 are the same as those in Table 1 and Table 2 above.

[8] = test system: Amaranthus viridis; assay: as above; conditions: 120 g/10a active ingredient, evaluated 14 days after treatment
Method: as §3, §4, §5

[9] = test system: Chenopodium album; assay: as above; conditions: 120 g/10a active ingredient, evaluated 14 days after treatment
Method: as §3, §4, §5

[10] = test system: southern crabgrass; assay: as above; conditions: 120 g/10a active ingredient, evaluated 14 days after treatment
Method: as §3, §4, §5

Cc1c(Cc2ccccc2NS(=O)(=O)C(F)(F)F)c(=O)on1S(=O)(=O)C(C)C [Compound 1-251]
Herbicidal rate (%) Lindernia pyxidaria [1]: 90%
Herbicidal rate (%) Monochoria vaginalis [1]: 100%
Herbicidal rate (%) Echinochloa crus-galli [2]: 100%
Herbicidal rate (%) Scirpus juncoides [3]: 80%
Herbicidal rate (%) Lindernia pyxidaria [4]: 50%
Herbicidal rate (%) Monochoria vaginalis [4]: 80%
Herbicidal rate (%) Echinochloa crus-galli [5]: 50%
Herbicidal rate (%) Scirpus juncoides [6]: 90%
herbicidal rate, Echinochloa crus-galli [7]: 100%
herbicidal rate, Amaranthus viridis [8]: 80%
herbicidal rate, Chenopodium album [9]: 80%
herbicidal rate, southern crabgrass [10]: 80%

Cc1c(Cc2ccccc2N(C(=O)c2ccccc2)S(=O)(=O)C(F)(F)F)c(=O)on1C(C)C [Compound 1-472]
Herbicidal rate (%) Lindernia pyxidaria [1]: 90%
Herbicidal rate (%) Monochoria vaginalis [1]: 60%
Herbicidal rate (%) Echinochloa crus-galli [2]: 90%
Herbicidal rate (%) Scirpus juncoides [3]: 90%
Herbicidal rate (%) Lindernia pyxidaria [4]: 80%
Herbicidal rate (%) Monochoria vaginalis [4]: 90%
Herbicidal rate (%) Echinochloa crus-galli [5]: 90%
Herbicidal rate (%) Scirpus juncoides [6]: 90%
herbicidal rate, Echinochloa crus-galli [7]: 90%
herbicidal rate, Amaranthus viridis [8]: 0%
herbicidal rate, Chenopodium album [9]: 50%
herbicidal rate, southern crabgrass [10]: 70%

Cc1c(Cc2ccccc2N(S(=O)(=O)C(F)(F)F)S(=O)(=O)C(F)(F)F)c(=O)on1CCCc1ccccc1 [Compound 1-1048]
Herbicidal rate (%) Lindernia pyxidaria [1]: 80%
Herbicidal rate (%) Monochoria vaginalis [1]: 60%
Herbicidal rate (%) Echinochloa crus-galli [2]: 90%
Herbicidal rate (%) Scirpus juncoides [3]: 80%
Herbicidal rate (%) Lindernia pyxidaria [4]: 60%
Herbicidal rate (%) Monochoria vaginalis [4]: 60%
Herbicidal rate (%) Echinochloa crus-galli [5]: 90%
Herbicidal rate (%) Scirpus juncoides [6]: 40%
herbicidal rate, Echinochloa crus-galli [7]: 40%
herbicidal rate, Amaranthus viridis [8]: 40%
herbicidal rate, Chenopodium album [9]: 40%
herbicidal rate, southern crabgrass [10]: 0%

Cc1c(Cc2ccccc2NS(=O)(=O)C(F)(F)F)c(=O)on1C1CCCc2ccccc21 (stereo not drawn) [Compound 1-224]
Herbicidal rate (%) Lindernia pyxidaria [1]: 100%
Herbicidal rate (%) Monochoria vaginalis [1]: 100%
Herbicidal rate (%) Echinochloa crus-galli [2]: 100%
Herbicidal rate (%) Scirpus juncoides [3]: 90%
Herbicidal rate (%) Lindernia pyxidaria [4]: 60%
Herbicidal rate (%) Monochoria vaginalis [4]: 80%
Herbicidal rate (%) Echinochloa crus-galli [5]: 90%
Herbicidal rate (%) Scirpus juncoides [6]: 80%
herbicidal rate, Echinochloa crus-galli [7]: 100%
herbicidal rate, Amaranthus viridis [8]: 100%
herbicidal rate, Chenopodium album [9]: 90%
herbicidal rate, southern crabgrass [10]: 100%

Cc1c(Cc2ccccc2N(C(=O)OCC(C)C)S(=O)(=O)C(F)(F)F)c(=O)on1C(C)C [Compound 1-667]
Herbicidal rate (%) Lindernia pyxidaria [1]: 90%
Herbicidal rate (%) Monochoria vaginalis [1]: 90%
Herbicidal rate (%) Echinochloa crus-galli [2]: 90%
Herbicidal rate (%) Scirpus juncoides [3]: 90%
Herbicidal rate (%) Lindernia pyxidaria [4]: 90%
Herbicidal rate (%) Monochoria vaginalis [4]: 90%
Herbicidal rate (%) Echinochloa crus-galli [5]: 90%
Herbicidal rate (%) Scirpus juncoides [6]: 90%
herbicidal rate, Echinochloa crus-galli [7]: 90%
herbicidal rate, Amaranthus viridis [8]: 80%
herbicidal rate, Chenopodium album [9]: 90%
herbicidal rate, southern crabgrass [10]: 80%

Source: patent publication US11109593B2, “Isoxazolin-5-one derivative and herbicide containing same as active ingredient” (HOKKO CHEMICAL INDUSTRY CO., LTD., priority 2017, dated 2021)
